Data reported in patent publication US7105488B1, “G protein-coupled receptor antagonists” (priority 1998, dated 2006).
Where a SMILES comes first, the peptide text is derived from it.

What was measured:
Assay type in all cases: cell-based
CCKAR = molecular target: T1, CCKAR (Rattus norvegicus, UniProt P30551); assay: Inhibition of CCK-8-induced intracellular calcium release in CHO cells stably transfected with rat CCKAR
T1 construct: expressed in transfected cells; host or cells: CHO cells
T1 sequence (P30551 1-444): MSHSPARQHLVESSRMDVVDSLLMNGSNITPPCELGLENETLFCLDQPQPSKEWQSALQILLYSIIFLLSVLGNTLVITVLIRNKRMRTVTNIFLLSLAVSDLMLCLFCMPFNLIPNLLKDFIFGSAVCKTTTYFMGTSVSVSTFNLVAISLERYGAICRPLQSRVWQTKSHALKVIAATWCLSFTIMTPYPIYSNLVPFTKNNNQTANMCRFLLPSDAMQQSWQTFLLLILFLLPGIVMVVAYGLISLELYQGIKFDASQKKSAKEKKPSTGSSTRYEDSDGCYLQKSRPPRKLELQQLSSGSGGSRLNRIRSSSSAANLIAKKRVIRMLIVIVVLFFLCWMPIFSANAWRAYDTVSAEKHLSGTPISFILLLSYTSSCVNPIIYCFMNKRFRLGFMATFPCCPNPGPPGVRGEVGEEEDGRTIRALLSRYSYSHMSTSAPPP
Description: The activity of peptides from the CCKAR transmembrane domain were tested in transfected CHO cells that stably express rat CCKAR (Tarasova et al. (1997), J. Biol. Chem. 272: 14817–14824). Sulfated cholecystokinin octapeptide was the CCKAR agonist. Determination of intracellular calcium release was performed as described in example 1 above.
None of CCKAR-derived peptides served as antagonists of chemokine receptors and none could inhibit HIV-1 infection. The activity of the antagonists in inhibiting signaling through the receptor was compared to the ability to prevent agonist binding (Table 4). Inhibition of signaling was assessed in CCK-8 evoked intracellular calcium release in FURA-2/AM treated CHO cells stably transfected with rat CCKAR (Tarasova, et al. (1997) J. Biol. Chem. 272:14817). Inhibition of ligand binding was measured with the use of a fluorescent agonist, rhodamine green CCK-8 (RG-CCK-8) and quantitative confocal laser scanning microscopy (Tarasova, et al. (1997) J. Biol. Chem. 272:14817). Peptides derived from the first, second, and sixth transmembrane domains inhibited CCK-induced signaling through the CCKAR receptor.

CXCR4 receptor = CXCR4 receptor (Homo sapiens, UniProt P61073); assay: Inhibition of SDF-1α-induced intracellular calcium release (Fura-2/AM) in HeLa and U87 cells; conditions: for Concentration, required for inhibition of signal transduction: SDF-1α-induced intracellular calcium release, Table 2
Sequence of CXCR4 receptor (P61073 whole entry): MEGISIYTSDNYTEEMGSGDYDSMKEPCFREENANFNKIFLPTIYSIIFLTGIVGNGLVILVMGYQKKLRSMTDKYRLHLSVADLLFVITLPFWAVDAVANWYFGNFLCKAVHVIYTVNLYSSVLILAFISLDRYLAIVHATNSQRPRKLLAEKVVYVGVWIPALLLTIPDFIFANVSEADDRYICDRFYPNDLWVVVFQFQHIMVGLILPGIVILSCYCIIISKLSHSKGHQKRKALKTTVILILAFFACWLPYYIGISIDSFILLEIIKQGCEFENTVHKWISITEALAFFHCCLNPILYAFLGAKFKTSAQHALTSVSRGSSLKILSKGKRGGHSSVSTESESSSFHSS
Description: The effect of the peptides on CXCR4-mediated calcium fluxes in HeLa cells that naturally express the CXCR4 receptor and U87 cells stably expressing the CXCR4 receptor was tested as follows. Cells grown on Nunc cover glass chamber slides were incubated with 1 micromolar Fura-2/AM for 20 min in a CO2-incubator, rinsed with PBS and mounted on the stage of a Zeiss Axiovert inverted microscope. [Ca^2+]i measurements were performed using an Attofluor digital imaging system (Atto Instruments, Rockville, Md.). Fluorescence of Fura was excited at alternating wavelength of 340 and 380 nm. […] Calibrations of [Ca^2+]i signals were performed using Ca^2+ standards containing 1 micromolar Fura. CXCR4 antagonists were tested on HeLa cells and U87 cells. Stromal cell-derived factor-1α (SDF-1α) was used as a specific CXCR4 agonist. CCR5 antagonists, which were used in selectivity studies as described below, were tested on HEK (human kidney […]) cells stably expressing the CCR5 receptor and RANTES was used as an agonist. The antagonist activity of the peptides was evaluated by measuring the inhibition of agonist-evoked intracellular Ca^2+i release. These measurements were carried out in Fura-2/AM-treated cells, utilizing an Attofluor digital imaging system as described above. The agonist was SDF-1 α.

LAV strain of HIV-1 = assay: Anti-HIV-1 assay, CEM-SS cells infected with LAV strain, p24 ELISA; conditions: FIG. 1
Description: The ability of synthetic CXCR4-derived peptides of Table 1 to inhibit HIV-1 infection of CEM-SS cells was tested using an LAV strain of the virus that is known to utilize CXCR4 as a co-receptor. Anti-HIV-1 assay. Buckheit et al. (1993) Antiviral Research 21: 247. The CEM-SS cells were maintained in RPMI 1640 medium containing 10% fetal bovine serum. The cells were placed in each well of a 96-well microtiter plate to a density of 5×10^3 cells per well. The cells were infected with HIV-1 virus at a multiplicity of infection (MOI) previously determined to produce maximal level of viral production at 6 days post infection (MOI of 0.01).
Serial half-log dilutions of test compound were added to appropriate wells in triplicate to evaluate their ability to inhibit HIV-1 infection. AZT was used in parallel as a positive control. Following 6 days of incubation at 37° C., the presence and relative abundance of viral p24 protein was determined by ELISA in cell-free supernatants derived from each well of the microtiter plate. The p24 ELISA kit was purchased from the AIDS Vaccine Program, NCI, FCRDC (Frederick, Md.) and the assay was performed according to the manufacturer's instructions.

HIV-1RF = assay: Anti-HIV-1 cytoprotection assay, CEM-SS cells infected with HIV-1RF; conditions: HIV-1 strain RF, FIG. 2
CCR5 receptor = molecular target: T2, CCR5 receptor (Homo sapiens, UniProt P51681); assay: Inhibition of agonist (RANTES)-evoked intracellular calcium release through CCR5; conditions: U87 cells as printed
T2 construct: expressed in transfected cells
T2 sequence (P51681 whole entry): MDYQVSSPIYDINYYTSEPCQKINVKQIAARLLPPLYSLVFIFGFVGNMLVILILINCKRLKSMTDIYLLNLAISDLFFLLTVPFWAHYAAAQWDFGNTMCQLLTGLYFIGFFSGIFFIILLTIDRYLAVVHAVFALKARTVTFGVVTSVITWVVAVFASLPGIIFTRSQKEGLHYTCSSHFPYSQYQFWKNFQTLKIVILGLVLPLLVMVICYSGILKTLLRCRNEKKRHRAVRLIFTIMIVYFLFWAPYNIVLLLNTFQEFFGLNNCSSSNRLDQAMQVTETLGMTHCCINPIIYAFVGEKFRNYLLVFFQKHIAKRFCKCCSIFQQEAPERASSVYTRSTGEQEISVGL
Description: CCR5 antagonists, which were used in selectivity studies as described below, were tested on HEK (human kidney […]) cells stably expressing the CCR5 receptor and RANTES was used as an agonist. The antagonist activity of the peptides was evaluated by measuring the inhibition of agonist-evoked intracellular Ca^2+i release. These measurements were carried out in Fura-2/AM-treated cells, utilizing an Attofluor digital imaging system as described above. The agonist was SDF-1 α.

Q: For `CSCC[C@H](NC(=O)[C@H](CC(C)C)NC(=O)[C@H](CC(=O)O)NC(=O)[C@H](CO)NC(=O)[C@@H](NC(=O)[C@H](C)NC(=O)[C@H](CC(C)C)NC(=O)[C@H](CO)NC(=O)[C@H](CC(C)C)NC(=O)[C@H](CC(C)C)NC(=O)[C@@H](N)Cc1ccccc1)C(C)C)C(=O)N[C@@H](CC(C)C)C(=O)N[C@@H](CS)C(=O)N[C@@H](CC(C)C)C(=O)N[C@@H](Cc1ccccc1)C(=O)N[C@@H](CS)C(=O)N[C@@H](CCSC)C(=O)N1CCC[C@H]1C(=O)N[C@@H](Cc1ccccc1)C(=O)N[C@@H](CC(N)=O)C(=O)N[C@@H](CC(C)C)C(=O)N1CCC[C@H]1C(=O)O` [CCKAR-TM-2-1] (H-FLLSLAVSDLMLCLFCMPFNLP-OH), which “Concentration, required for inhibition of signaling” value (CCKAR; CCK-8-induced intracellular calcium release) is on record?
A: 2 µM

Q: And the “Potency in inhibition of ligand signaling compared with binding” value (CCKAR; signaling versus RG-CCK-8 binding)?
A: comparable potencies

Q: How did the “Concentration at which signal transduction was completely blocked” value (CXCR4 receptor) turn out when `CC[C@H](C)[C@H](NC(=O)[C@@H](NC(=O)[C@H](Cc1ccccc1)NC(=O)[C@H](CC(C)C)NC(=O)[C@@H](N)CC(C)C)C(C)C)C(=O)N[C@H](C(=O)N[C@@H](CC(C)C)C(=O)N1CCC[C@H]1C(=O)N[C@@H](Cc1ccccc1)C(=O)N[C@@H](Cc1c[nH]c2ccccc12)C(=O)N[C@@H](C)C(=O)N[C@H](C(=O)N[C@@H](CC(=O)O)C(=O)N[C@@H](C)C(=O)N[C@H](C(=O)N[C@@H](C)C(=O)N[C@@H](CC(N)=O)C(=O)N[C@@H](Cc1c[nH]c2ccccc12)C(=O)N[C@@H](Cc1ccc(O)cc1)C(=O)N[C@@H](Cc1ccccc1)C(=O)NCC(=O)N[C@@H](CC(N)=O)C(=O)N[C@@H](CC(=O)O)C(=O)N[C@@H](CC(=O)O)C(=O)O)C(C)C)C(C)C)[C@@H](C)O` [Peptide F-2-2] (H-LLFVITLPFWAVDAVANWYFGNDD-OH; N-terminus and C-terminus assumed) was run?
A: 0.2 µM

Q: What about the “Concentration, required for inhibition of signal transduction” value (CXCR4 receptor) of the same compound?
A: 0.2 µM

Q: What about the “Concentration, required for complete inhibition of [Ca^2+I] release” value (CXCR4 receptor; TM2-derived peptides, Table 3) of the same compound?
A: 0.2 µM

Q: And the “Concentration that completely inhibited infection” value (LAV strain of HIV-1)?
A: 5 µM

Q: For `CC[C@H](C)[C@H](NC(=O)[C@H](Cc1ccccc1)NC(=O)[C@H](CC(=O)O)NC(=O)[C@@H]1CCCN1C(=O)[C@@H](NC(=O)[C@@H](NC(=O)[C@H](CC(C)C)NC(=O)[C@H](CC(C)C)NC(=O)[C@H](CC(C)C)NC(=O)[C@H](C)NC(=O)[C@@H]1CCCN1C(=O)[C@@H](NC(=O)[C@H](Cc1c[nH]c2ccccc12)NC(=O)[C@@H](NC(=O)CNC(=O)[C@@H](NC(=O)[C@H](Cc1ccc(O)cc1)NC(=O)[C@@H](N)C(C)C)C(C)C)C(C)C)[C@@H](C)CC)[C@@H](C)O)[C@@H](C)CC)C(=O)N[C@@H](Cc1ccccc1)C(=O)N[C@@H](C)C(=O)N[C@@H](CC(N)=O)C(=O)N[C@@H](CC(=O)O)C(=O)N[C@@H](CC(=O)O)C(=O)O` [Peptide F-4-2] (H-VYVGVWIPALLLTIPDFIFANDD-OH; N-terminus and C-terminus assumed), which “Concentration, required for inhibition of signal transduction” value (CXCR4 receptor) is on record?
A: 5 µM

Q: What about the “Concentration that completely inhibited infection” value (HIV-1RF) of the same compound?
A: 1 µM

Q: What does the source list for “LFFL LTVPFWAHYAAAQWDFGDD (LFFLLTVPFWAHYAAAQWDFGDD; CCR5-TM-2-2 GPCR CCR5)”?
A: Antagonist activity on CXCR4 signaling, in words (CXCR4 receptor): no effect; Concentration at which agonist induced signaling of the receptor was completely abolished (CCR5 receptor): 500 nM
